Each structure is given as a SMILES string. Numbered stars: 1 amine (or outer) side, 2 acyl side, 3 side chain; on linkers, the order of the positions; unused ones are H or OH. Bridge positions count the residues as written; N and C are the ends. Peptide text beside a SMILES is read from it. I, II: the chains in the order shown. Rhodamine110 = O=C1OC2(c3ccc(N[*:1])cc3Oc3cc(N[*:2])ccc32)c2ccccc21

Common to all, as to type: cell-based, human
The test system of experiment [1] is lymphocytes. The experiment is described as follows: enzyme activity with fluorogenic substrate, normal lymphocytes (Table 3A).
The test system of experiment [2] is lymphocytes. The experiment is described as follows: aberrant enzyme activities in febrile children, lymphocytes (Table 7).
Experiment [3] concerns monocytes. As to the kind of experiment: aberrant enzyme activities in febrile children, monocytes (Table 7).
The test system of experiment [4] is granulocytes. As to the kind of experiment: aberrant enzyme activities in febrile children, granulocytes (Table 7).
The subject of experiment [5] is monocytes. The experiment is described as follows: enzyme activity with fluorogenic substrate, normal monocytes (Table 3A).
The subject of experiment [6] is granulocytes. The experiment is described as follows: enzyme activity with fluorogenic substrate, normal granulocytes (Table 3A).

For the molecule `CC(=O)Oc1ccc2c(c1)Oc1cc(OC(C)=O)ccc1C21OC(=O)c2ccccc21` [FDA-NAF, fluorescein diacetate, reference compound], the “NORMAL LEUKOCYTE ENZYME ACTIVITY LYMPHS Mean” value in the experiment on lymphocytes [1] is reported as 17.98. The “aberrant enzyme activity, LYMPHS” value with lymphocytes [2] (P88 Enteritis), in the experiment on lymphocytes [2] (P97 Pyelonephritis), in the experiment on lymphocytes [2] (P99 Viral Syndrome) and with lymphocytes [2] (P102 UTI) was “.smallcircle” each time. In addition, the “aberrant enzyme activity, MONOS” value in the experiment on monocytes [3] (P88 Enteritis) and in the experiment on monocytes [3] (P97 Pyelonephritis) was “.smallcircle” in each case. The “aberrant enzyme activity, GRANS” value with granulocytes [4] (P88 Enteritis), in the experiment with granulocytes [4] (P97 Pyelonephritis) and with granulocytes [4] (P102 UTI) was “.smallcircle” throughout.

For the molecule `N=C(N)NCCC[C@H](N)C(=O)NCC(=O)N[C@@H](CCC(=O)O)C(=O)N[C@@H](CO)C(=O)Nc1ccc2c(c1)Oc1cc(NC(=O)[C@H](CO)NC(=O)[C@H](CCC(=O)O)NC(=O)CNC(=O)[C@@H](N)CCCNC(=N)N)ccc1C21OC(=O)c2ccccc21` (stereo partly drawn) [RGES, (Arg-Gly-Glu-Ser)2 Rho 110] (I: H-RGES / II: H-RGES; linker I:C-II:C via Rhodamine110), in the experiment on monocytes [5], the “NORMAL LEUKOCYTE ENZYME ACTIVITY MONOS Mean” value worked out at 8.37. In the experiment with granulocytes [6], the “NORMAL LEUKOCYTE ENZYME ACTIVITY GRANS Mean” value is recorded as 3.96. In addition, the “aberrant enzyme activity, LYMPHS” value in the experiment with lymphocytes [2] (P88 Enteritis) is given as “.smallcircle”; with lymphocytes [2] (P89 Viral Stomatitis), “.smallcircle”; in the experiment with lymphocytes [2] (P92 Adenitis), “.smallcircle”; with lymphocytes [2] (P95 Viral Syndrome), “.smallcircle”; in the experiment on lymphocytes [2] (P96 Viral Syndrome), “+ (>0.25 Increase over normal range)”; in the experiment with lymphocytes [2] (P97 Pyelonephritis), “.smallcircle”. The “aberrant enzyme activity, LYMPHS” value with lymphocytes [2] (P99 Viral Syndrome), with lymphocytes [2] (P101 Fever -- Unknown Origin), in the experiment with lymphocytes [2] (P102 UTI) and in the experiment on lymphocytes [2] (P103 Viral Syndrome) was “.smallcircle” throughout. Besides, the “aberrant enzyme activity, MONOS” value is “- (>0.25 Decrease over normal range)” with monocytes [3] (P88 Enteritis); “.smallcircle” in the experiment on monocytes [3] (P89 Viral Stomatitis); “+ (>0.25 Increase over normal range)” in the experiment on monocytes [3] (P92 Adenitis); “.smallcircle” with monocytes [3] (P95 Viral Syndrome); “.smallcircle” in the experiment on monocytes [3] (P96 Viral Syndrome); “.smallcircle” in the experiment on monocytes [3] (P97 Pyelonephritis). The “aberrant enzyme activity, MONOS” value is recorded as “.smallcircle” with monocytes [3] (P99 Viral Syndrome), “- (>0.25 Decrease over normal range)” in the experiment on monocytes [3] (P101 Fever -- Unknown Origin), “.smallcircle” in the experiment on monocytes [3] (P102 UTI) and “.smallcircle” in the experiment with monocytes [3] (P103 Viral Syndrome). Moreover, the “aberrant enzyme activity, GRANS” value is recorded as “.smallcircle” in the experiment with granulocytes [4] (P88 Enteritis); “+ (>0.25 Increase over normal range)” in the experiment with granulocytes [4] (P89 Viral Stomatitis); “+ (>0.25 Increase over normal range)” in the experiment with granulocytes [4] (P92 Adenitis); “.smallcircle” in the experiment on granulocytes [4] (P95 Viral Syndrome); “.smallcircle” in the experiment on granulocytes [4] (P96 Viral Syndrome); “.smallcircle” with granulocytes [4] (P97 Pyelonephritis). Further, the “aberrant enzyme activity, GRANS” value in the experiment on granulocytes [4] (P99 Viral Syndrome), in the experiment on granulocytes [4] (P101 Fever -- Unknown Origin), in the experiment on granulocytes [4] (P102 UTI) and in the experiment with granulocytes [4] (P103 Viral Syndrome) was “.smallcircle” in each case.

As for `O=C1OC2(c3ccc(OP(=O)(O)O)cc3Oc3cc(OP(=O)(O)O)ccc32)c2ccccc21` [DPO4, (PO4)2 fluorescein], in the experiment with lymphocytes [1], the “NORMAL LEUKOCYTE ENZYME ACTIVITY LYMPHS Mean” value was found to be 54.29. The “aberrant enzyme activity, LYMPHS” value is recorded as “.smallcircle” in the experiment on lymphocytes [2] (P88 Enteritis); “.smallcircle” with lymphocytes [2] (P89 Viral Stomatitis); “.smallcircle” in the experiment with lymphocytes [2] (P92 Adenitis); “.smallcircle” with lymphocytes [2] (P95 Viral Syndrome); “- (>0.25 Decrease over normal range)” in the experiment with lymphocytes [2] (P96 Viral Syndrome); “.smallcircle” with lymphocytes [2] (P97 Pyelonephritis). Moreover, the “aberrant enzyme activity, LYMPHS” value in the experiment on lymphocytes [2] (P99 Viral Syndrome), in the experiment with lymphocytes [2] (P101 Fever -- Unknown Origin), with lymphocytes [2] (P102 UTI) and with lymphocytes [2] (P103 Viral Syndrome) was “.smallcircle” throughout. Moreover, the “aberrant enzyme activity, MONOS” value is “.smallcircle” with monocytes [3] (P88 Enteritis); “+ (>0.25 Increase over normal range)” with monocytes [3] (P89 Viral Stomatitis); “+ (>0.25 Increase over normal range)” in the experiment with monocytes [3] (P92 Adenitis); “+ (>0.25 Increase over normal range)” with monocytes [3] (P95 Viral Syndrome); “.smallcircle” with monocytes [3] (P97 Pyelonephritis); “.smallcircle” in the experiment on monocytes [3] (P99 Viral Syndrome). For the same molecule, the “aberrant enzyme activity, MONOS” value in the experiment with monocytes [3] (P101 Fever -- Unknown Origin) was “+ (>0.25 Increase over normal range)”; with monocytes [3] (P102 UTI) it was “.smallcircle”; in the experiment on monocytes [3] (P103 Viral Syndrome), “+ (>0.25 Increase over normal range)”. Also, the “aberrant enzyme activity, GRANS” value is given as “.smallcircle” with granulocytes [4] (P88 Enteritis); “+ (>0.25 Increase over normal range)” in the experiment on granulocytes [4] (P89 Viral Stomatitis); “+ (>0.25 Increase over normal range)” with granulocytes [4] (P92 Adenitis); “.smallcircle” with granulocytes [4] (P95 Viral Syndrome); “.smallcircle” in the experiment with granulocytes [4] (P96 Viral Syndrome); “.smallcircle” with granulocytes [4] (P97 Pyelonephritis). Besides, the “aberrant enzyme activity, GRANS” value in the experiment on granulocytes [4] (P99 Viral Syndrome) was “.smallcircle”; in the experiment on granulocytes [4] (P101 Fever -- Unknown Origin) it was “+ (>0.25 Increase over normal range)”; in the experiment on granulocytes [4] (P102 UTI), “.smallcircle”; in the experiment on granulocytes [4] (P103 Viral Syndrome) it was “+ (>0.25 Increase over normal range)”.

For the origin of these results see patent US5698411A, “Method for determining activity of enzymes in metabolically active whole cells” (priority 1995, dated 1997).
